From ChEMBL document CHEMBL3885881, “DrugMatrix”

Species: Rattus norvegicus
Test: DrugMatrix - Regimen: Daily Repeat
Type: toxicity, organism-based, Sprague-Dawley
Design: regimen Daily Repeat, gender Male, age 6-8 weeks
Details: in vivo, po, route oral GAVAGE, vehicle .5 % CMC; for TOTAL PROTEIN / ALANINE AMINOTRANSFERASE / ALBUMIN / ALKALINE PHOSPHATASE / ASPARTATE AMINOTRANSFERASE / BLOOD UREA NITROGEN / CHLORIDE / CHOLESTEROL / CREATINE PHOSPHOKINASE / CREATININE / GLUCOSE / PHOSPHORUS / POTASSIUM / SODIUM / TOTAL BILIRUBIN: tissue Plasma; for BASOPHIL / EOSINOPHIL / ERYTHROCYTE COUNT / HEMATOCRIT / HEMOGLOBIN / LEUKOCYTE COUNT / LYMPHOCYTE / MEAN CORPUSCULAR HEMOGLOBIN / MEAN CORPUSCULAR HEMOGLOBIN CONCENTRATION / MEAN CORPUSCULAR VOLUME / MONOCYTE / NEUTROPHIL / PLATELET COUNT: tissue Blood
[1] = 41 mg/kg, 120 h, dose level High, time 5 day
[2] = […], 72 h, dose 4.1 mg/Kg, dose level Low, time 3 day
[3] = […], 120 h, dose 4.1 mg/Kg, dose level Low, time 5 day

## O=C1c2ccccc2C(=O)C1c1ccccc1 [PHENINDIONE]
41 mg/kg, 72 h, dose level High, time 3 day
  TOTAL PROTEIN: 6.63 G/DL
[1]
  BASOPHIL: 1.47%
  EOSINOPHIL: 0.3%
  ERYTHROCYTE COUNT: 7.12 x10E6/uL
  HEMATOCRIT: 45.4%
  HEMOGLOBIN: 14.17 G/DL
  LEUKOCYTE COUNT: 14.99 x10E3/uL
  LYMPHOCYTE: 85.6%
  MEAN CORPUSCULAR HEMOGLOBIN: 19.93 pg
  MEAN CORPUSCULAR HEMOGLOBIN CONCENTRATION: 31.23 G/DL
  MEAN CORPUSCULAR VOLUME: 63.83 fL
  MONOCYTE: 2.43%
  NEUTROPHIL: 9.5%
  PLATELET COUNT: 1502.67 x10E3/uL
  ALANINE AMINOTRANSFERASE: 34 u/L
  ALBUMIN: 3.53 G/DL
  ALKALINE PHOSPHATASE: 292 u/L
  ASPARTATE AMINOTRANSFERASE: 57 u/L
  BLOOD UREA NITROGEN: 10.67 mg/dL
  CHLORIDE: 103.67 MEQ/L
  CHOLESTEROL: 83.33 mg/dL
  CREATINE PHOSPHOKINASE: 132.67 u/L
  CREATININE: 0.47 mg/dL
  GLUCOSE: 192.67 mg/dL
  PHOSPHORUS: 12.77 mg/dL
  POTASSIUM: 7.37 MEQ/L
  SODIUM: 150 MEQ/L
  TOTAL BILIRUBIN: 0.37 mg/dL
  TOTAL PROTEIN: 6.43 G/DL
[2]
  BASOPHIL: 0.47%
  EOSINOPHIL: 0.27%
  ERYTHROCYTE COUNT: 7.09 x10E6/uL
  HEMATOCRIT: 45.17%
  HEMOGLOBIN: 13.97 G/DL
  LEUKOCYTE COUNT: 12.61 x10E3/uL
  LYMPHOCYTE: 82.37%
  MEAN CORPUSCULAR HEMOGLOBIN: 19.7 pg
  MEAN CORPUSCULAR HEMOGLOBIN CONCENTRATION: 30.9 G/DL
  MEAN CORPUSCULAR VOLUME: 63.73 fL
  MONOCYTE: 2.5%
  NEUTROPHIL: 13.5%
  PLATELET COUNT: 1416.33 x10E3/uL
  ALANINE AMINOTRANSFERASE: 33 u/L
  ALBUMIN: 3.63 G/DL
  ALKALINE PHOSPHATASE: 396.33 u/L
  ASPARTATE AMINOTRANSFERASE: 56 u/L
  BLOOD UREA NITROGEN: 11.33 mg/dL
  CHLORIDE: 96 MEQ/L
  CHOLESTEROL: 74.67 mg/dL
  CREATINE PHOSPHOKINASE: 136.67 u/L
  CREATININE: 0.47 mg/dL
  GLUCOSE: 209.33 mg/dL
  PHOSPHORUS: 12.83 mg/dL
  POTASSIUM: 6.4 MEQ/L
  SODIUM: 140.33 MEQ/L
  TOTAL BILIRUBIN: 0.27 mg/dL
  TOTAL PROTEIN: 6.5 G/DL
[3]
  BASOPHIL: 1.43%
  EOSINOPHIL: 0.2%
  ERYTHROCYTE COUNT: 6.9 x10E6/uL
  HEMATOCRIT: 44.03%
  HEMOGLOBIN: 13.87 G/DL
  LEUKOCYTE COUNT: 10.25 x10E3/uL
  LYMPHOCYTE: 84.9%
  MEAN CORPUSCULAR HEMOGLOBIN: 20.03 pg
  MEAN CORPUSCULAR HEMOGLOBIN CONCENTRATION: 31.4 G/DL
  MEAN CORPUSCULAR VOLUME: 63.83 fL
  MONOCYTE: 2.17%
  NEUTROPHIL: 10.6%
  PLATELET COUNT: 1408.33 x10E3/uL
  ALANINE AMINOTRANSFERASE: 37.33 u/L
  ALBUMIN: 3.6 G/DL
  ALKALINE PHOSPHATASE: 340.67 u/L
  ASPARTATE AMINOTRANSFERASE: 58 u/L
  BLOOD UREA NITROGEN: 9 mg/dL
  CHLORIDE: 103.33 MEQ/L
  CHOLESTEROL: 58 mg/dL
  CREATINE PHOSPHOKINASE: 132.33 u/L
  CREATININE: 0.43 mg/dL
  GLUCOSE: 190.33 mg/dL
  PHOSPHORUS: 13.17 mg/dL
  POTASSIUM: 7.2 MEQ/L
  SODIUM: 150.33 MEQ/L
  TOTAL BILIRUBIN: 0.27 mg/dL
